Experimental data reported in ChEMBL document CHEMBL1201862, “PubChem BioAssay data set” (2004).
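All cell lines were grown in 96-well plates and treated with compound for 48 hours. Here, GI50 denotes the concentration required for 50% inhibition of growth.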 Activity calls are given as the source filed them. Cut-off read from the data, not from the text of the source: active = GI50 up to about 1.1 µM and inactive = higher.

Legend:
Experiment in all cases: NCI-60 cell line screen, 48 h
CAKI-1 = test system: CAKI-1
EKVX = test system: EKVX
HCT-116 = test system: HCT-116
HCT-15 = test system: HCT-15
HOP-62 = test system: HOP-62
HT-29 = test system: HT-29
KM12 = test system: KM12
MCF7 = test system: MCF7
NCI-H460 = test system: NCI-H460
NCI/ADR-RES = test system: NCI/ADR-RES
RXF 393 = test system: RXF 393
SF-539 = test system: SF-539
SK-OV-3 = test system: SK-OV-3
SW-620 = test system: SW-620
T47D = test system: T47D
U-251 = test system: U-251
UACC-257 = test system: UACC-257
UACC-62 = test system: UACC-62
CCRF-CEM = test system: CCRF-CEM

SMILES: N=C(N)SCc1cccc(-c2nc3ccccc3c(=O)o2)c1
- GI50 (CAKI-1): > 100 µM (inactive)
- GI50 (EKVX): > 100 µM (inactive)
- GI50 (HCT-116): > 100 µM (inactive)
- GI50 (HCT-15): > 100 µM
- GI50 (HOP-62): > 100 µM (inactive)
- GI50 (HT-29): > 100 µM (inactive)
- GI50 (KM12): > 100 µM (inactive)
- GI50 (MCF7): > 100 µM (inactive)
- GI50 (NCI-H460): > 100 µM (inactive)
- GI50 (NCI/ADR-RES): > 100 µM (inactive)
- GI50 (RXF 393): > 100 µM (inactive)
- GI50 (SF-539): > 100 µM (inactive)
- GI50 (SK-OV-3): > 100 µM (inactive)
- GI50 (SW-620): > 100 µM (inactive)
- GI50 (T47D): > 100 µM (inactive)
- GI50 (U-251): > 100 µM (inactive)
- GI50 (UACC-257): > 100 µM (inactive)
- GI50 (UACC-62): > 100 µM (inactive)

SMILES: COc1ccc2c3c1OC1c4[nH]c5ccccc5c4CC4(O)C(C2)N(C)CCC314 (stereo unspecified)
- GI50 (CAKI-1): 35.3 µM (inactive)
- GI50 (CCRF-CEM): 24.2 µM (inactive)
- GI50 (EKVX): 51.9 µM (inactive)
- GI50 (HCT-116): 32.3 µM (inactive)
- GI50 (HCT-15): 46.6 µM
- GI50 (HOP-62): 40.3 µM (inactive)
- GI50 (HT-29): 22 µM (inactive)
- GI50 (KM12): 30.3 µM (inactive)
- GI50 (MCF7): 21.8 µM (inactive)
- GI50 (NCI-H460): 22 µM (inactive)
- GI50 (NCI/ADR-RES): 63.4 µM (inactive)
- GI50 (RXF 393): 20 µM (inactive)
- GI50 (SK-OV-3): > 100 µM (inactive)
- GI50 (SW-620): 39.1 µM (inactive)
- GI50 (T47D): 20.8 µM (inactive)
- GI50 (U-251): 21 µM (inactive)
- GI50 (UACC-257): 17.3 µM (inactive)
- GI50 (UACC-62): 20.9 µM (inactive)

SMILES: CCOC(=O)C12C(=O)CCN1CCc1ccccc1C2C (stereo unspecified)
- GI50 (CAKI-1): > 100 µM (inactive)
- GI50 (EKVX): > 100 µM (inactive)
- GI50 (HCT-116): > 100 µM (inactive)
- GI50 (HCT-15): > 100 µM
- GI50 (HOP-62): > 100 µM (inactive)
- GI50 (HT-29): > 100 µM (inactive)
- GI50 (KM12): > 100 µM (inactive)
- GI50 (MCF7): > 100 µM (inactive)
- GI50 (NCI/ADR-RES): > 100 µM (inactive)
- GI50 (RXF 393): > 100 µM (inactive)
- GI50 (SF-539): > 100 µM (inactive)
- GI50 (SK-OV-3): > 100 µM (inactive)
- GI50 (SW-620): > 100 µM (inactive)
- GI50 (T47D): > 100 µM (inactive)
- GI50 (U-251): > 100 µM (inactive)
- GI50 (UACC-257): > 100 µM (inactive)
- GI50 (UACC-62): > 100 µM (inactive)

SMILES: COc1cccc(C23CCCC(C2)N(C)CC3OC(=O)c2ccccc2)c1OC (stereo unspecified)
- GI50 (CAKI-1): 42.4 µM (inactive)
- GI50 (CCRF-CEM): 12.5 µM (inactive)
- GI50 (EKVX): 24.5 µM (inactive)
- GI50 (HCT-116): 20 µM (inactive)
- GI50 (HCT-15): 22.5 µM
- GI50 (HOP-62): 31.3 µM (inactive)
- GI50 (HT-29): 13.2 µM (inactive)
- GI50 (KM12): 22.9 µM (inactive)
- GI50 (MCF7): 27.4 µM (inactive)
- GI50 (NCI-H460): 20.6 µM (inactive)
- GI50 (NCI/ADR-RES): 20.7 µM (inactive)
- GI50 (SF-539): 52.5 µM (inactive)
- GI50 (SK-OV-3): 34 µM (inactive)
- GI50 (SW-620): 24.4 µM (inactive)
- GI50 (T47D): 20.3 µM (inactive)
- GI50 (U-251): 28.3 µM (inactive)
- GI50 (UACC-257): 25.8 µM (inactive)
- GI50 (UACC-62): 25.9 µM (inactive)

SMILES: Cc1cc2c(c(/C=N/Cc3ccccc3)c1)OC1(C=C2)Oc2ccccc2C(=O)N1C (stereo unspecified)
- GI50 (CAKI-1): 16.6 µM (inactive)
- GI50 (CCRF-CEM): 11.6 µM (inactive)
- GI50 (EKVX): 15.3 µM (inactive)
- GI50 (HCT-116): 21 µM (inactive)
- GI50 (HCT-15): 19.6 µM
- GI50 (HOP-62): 31.6 µM (inactive)
- GI50 (HT-29): 21.6 µM (inactive)
- GI50 (KM12): 25.2 µM (inactive)
- GI50 (MCF7): 28.9 µM (inactive)
- GI50 (NCI-H460): 25.1 µM (inactive)
- GI50 (NCI/ADR-RES): 20.2 µM (inactive)
- GI50 (RXF 393): 20 µM (inactive)
- GI50 (SK-OV-3): 37.5 µM (inactive)
- GI50 (SW-620): 33.6 µM (inactive)
- GI50 (T47D): 10.4 µM (inactive)
- GI50 (U-251): 29.4 µM (inactive)
- GI50 (UACC-257): 25.8 µM (inactive)
- GI50 (UACC-62): 22.4 µM (inactive)

SMILES: CC(=O)NN/C=N/C(C#N)=C(\N)C#N
- GI50 (CAKI-1): > 100 µM (inactive)
- GI50 (CCRF-CEM): > 100 µM (inactive)
- GI50 (EKVX): > 100 µM (inactive)
- GI50 (HCT-116): > 100 µM (inactive)
- GI50 (HCT-15): > 100 µM
- GI50 (HOP-62): > 100 µM (inactive)
- GI50 (HT-29): > 100 µM (inactive)
- GI50 (KM12): > 100 µM (inactive)
- GI50 (MCF7): > 100 µM (inactive)
- GI50 (NCI-H460): > 100 µM (inactive)
- GI50 (NCI/ADR-RES): > 100 µM (inactive)
- GI50 (SF-539): > 100 µM (inactive)
- GI50 (SK-OV-3): > 100 µM (inactive)
- GI50 (SW-620): > 100 µM (inactive)
- GI50 (T47D): > 100 µM (inactive)
- GI50 (U-251): > 100 µM (inactive)
- GI50 (UACC-257): > 100 µM (inactive)
- GI50 (UACC-62): > 100 µM (inactive)

SMILES: Cc1c(C)c2c(c(N)c1C#N)C(=O)N(N)C2=O
- GI50 (CAKI-1): > 100 µM (inactive)
- GI50 (CCRF-CEM): > 100 µM (inactive)
- GI50 (EKVX): > 100 µM (inactive)
- GI50 (HCT-116): 84.9 µM (inactive)
- GI50 (HCT-15): > 100 µM
- GI50 (HT-29): > 100 µM (inactive)
- GI50 (KM12): > 100 µM (inactive)
- GI50 (MCF7): > 100 µM (inactive)
- GI50 (NCI-H460): > 100 µM (inactive)
- GI50 (NCI/ADR-RES): > 100 µM (inactive)
- GI50 (RXF 393): > 100 µM (inactive)
- GI50 (SF-539): > 100 µM (inactive)
- GI50 (SK-OV-3): > 100 µM (inactive)
- GI50 (SW-620): 80.5 µM (inactive)
- GI50 (T47D): > 100 µM (inactive)
- GI50 (U-251): > 100 µM (inactive)
- GI50 (UACC-257): > 100 µM (inactive)
- GI50 (UACC-62): > 100 µM (inactive)

SMILES: O=C(OCC(Cl)(Cl)Cl)N1CC[C@@H](C2CCCCC2)C1
- GI50 (CAKI-1): 27 µM (inactive)
- GI50 (CCRF-CEM): 21.5 µM (inactive)
- GI50 (EKVX): 23.1 µM (inactive)
- GI50 (HCT-116): 29.6 µM (inactive)
- GI50 (HCT-15): 18.7 µM
- GI50 (HOP-62): 20.4 µM (inactive)
- GI50 (KM12): 17 µM (inactive)
- GI50 (MCF7): 22.1 µM (inactive)
- GI50 (NCI-H460): 21 µM (inactive)
- GI50 (NCI/ADR-RES): 18 µM (inactive)
- GI50 (RXF 393): 18.3 µM (inactive)
- GI50 (SK-OV-3): 42.6 µM (inactive)
- GI50 (T47D): 32.7 µM (inactive)
- GI50 (U-251): 0.1 µM (active)
- GI50 (UACC-257): 28.4 µM (inactive)
- GI50 (UACC-62): 27.7 µM (inactive)
